{"source": "patent EP4635500A1", "about": "“THERAPEUTIC AGENT FOR BACTERIAL INFECTION” (Sumitomo Pharma Co., Ltd., priority 2022, dated 2024)", "format_in_all_cases": "cell-based", "key": {"Escherichia coli": {"test_system": "Escherichia coli", "assay": "MIC, broth microdilution, standard strains and Japanese clinical isolates (Example 5, Table 4)"}, "Klebsiella pneumoniae": {"test_system": "Klebsiella pneumoniae", "assay": "MIC, broth microdilution, standard strains and Japanese clinical isolates (Example 5, Table 4)"}, "Enterobacter cloacae": {"test_system": "Enterobacter cloacae", "assay": "MIC, broth microdilution, standard strains and Japanese clinical isolates (Example 5, Table 4)"}, "Enterobacter hormaechei": {"test_system": "Enterobacter hormaechei", "assay": "MIC, broth microdilution, standard strains and Japanese clinical isolates (Example 5, Table 4)", "conditions": "ATCCBAA2082; KUB4001 Enterobacter hormaechei ATCC BAA-2082, KPC-2"}, "Providencia rettgeri": {"test_system": "Providencia rettgeri", "assay": "MIC, broth microdilution, standard strains and Japanese clinical isolates (Example 5, Table 4)", "conditions": "ATCCBAA2525; KUB4010 Providencia rettgeri ATCC BAA-2525, OXA-181"}, "53 CRE and CPE strains": {"test_system": "53 CRE and CPE strains", "assay": "MICrange, MIC50, MIC80, MIC90 for 53 bacterial isolates (Example 5, Table 5)"}, "[1]": {"test_system": "Metallo-β-lactamase producing strains (N = 27)", "assay": "MIC50/MIC90 for carbapenemase-producing isolates (Example 5, Table 6)", "conditions": "metallo-β-lactamase-producing strains; combination: Compound A at a fixed concentration of 4 µg/mL; read-out: MIC90"}, "P. aeruginosa": {"test_system": "P. aeruginosa", "assay": "MIC, broth microdilution, CDC/FDA Antibiotic Resistance Isolate Bank (Example 7, Tables 10, 15)", "conditions": "for MIC: Pseudomonas aeruginosa, read-out: MIC"}, "[2]": {"conditions": "26 metallo-carbapenemase-producing P. aeruginosa strains, β-lactamase inhibitor µg/mL in parentheses"}, "[3]": {"conditions": "96 strains of P. aeruginosa, β-lactamase inhibitor µg/mL in parentheses"}}, "note": "Where two headings read alike, the source gives them in different places.", "data": [{"compound": "CC(C)(O/N=C(\\C(=O)N[C@@H]1C(=O)N2C(C(=O)[O-])=C(C[N+]3(CCNC(=O)c4ccc(O)c(O)c4Cl)CCCC3)CS[C@H]12)c1csc(N)n1)C(=O)O", "note": "[Cefiderocol, cefiderocol]", "values": [{"measurement": "MIC", "setting": "Escherichia coli; ATCCBAA2452, KUB4005 Escherichia coli ATCC BAA-2452, NDM-1", "result": 0.5, "unit": "µg/mL"}, {"measurement": "MIC", "setting": "Escherichia coli; ATCCBAA2471, KUB4007 Escherichia coli ATCC BAA-2471, NDM-6", "result": 4, "unit": "µg/mL"}, {"measurement": "MIC", "setting": "Klebsiella pneumoniae; ATCCBAA1898, KUB3996 Klebsiella pneumoniae ATCC BAA-1898, KPC-2", "result": 2, "unit": "µg/mL"}, {"measurement": "MIC", "setting": "Klebsiella pneumoniae; ATCCBAA1899, KUB3997 Klebsiella pneumoniae ATCC BAA-1899, KPC-2", "result": 2, "unit": "µg/mL"}, {"measurement": "MIC", "setting": "Klebsiella pneumoniae; ATCCBAA1900, KUB3998 Klebsiella pneumoniae ATCC BAA-1900, KPC-3", "result": 0.25, "unit": "µg/mL"}, {"measurement": "MIC", "setting": "Klebsiella pneumoniae; ATCCBAA1904, KUB3999 Klebsiella pneumoniae ATCC BAA-1904, KPC-3", "result": 1, "unit": "µg/mL"}, {"measurement": "MIC", "setting": "Klebsiella pneumoniae; ATCCBAA2078, KUB4000 Klebsiella pneumoniae ATCC BAA-2078, KPC-3", "result": 2, "unit": "µg/mL"}, {"measurement": "MIC", "setting": "Klebsiella pneumoniae; ATCCBAA2146, KUB4011 Klebsiella pneumoniae ATCC BAA-2146, NDM-1", "result": 2, "unit": "µg/mL"}, {"measurement": "MIC", "setting": "Klebsiella pneumoniae; ATCCBAA2342, KUB4003 Klebsiella pneumoniae ATCC BAA-2342, KPC-3", "result": 0.5, "unit": "µg/mL"}, {"measurement": "MIC", "setting": "Klebsiella pneumoniae; ATCCBAA2343, KUB4004 Klebsiella pneumoniae ATCC BAA-2343, KPC-3", "result": 0.25, "unit": "µg/mL"}, {"measurement": "MIC", "setting": "Klebsiella pneumoniae; ATCCBAA2472, KUB4008 Klebsiella pneumoniae subsp. Pneumoniae ATCC BAA-2472, NDM-1", "result": 8, "unit": "µg/mL"}, {"measurement": "MIC", "setting": "Klebsiella pneumoniae; ATCCBAA2473, KUB4009 Klebsiella pneumoniae ATCC BAA-2473, NDM-1", "result": 8, "unit": "µg/mL"}, {"measurement": "MIC", "setting": "Klebsiella pneumoniae; KUB3631 Klebsiella pneumoniae Clinical isolate, IMP-1", "result": 2, "unit": "µg/mL"}, {"measurement": "MIC", "setting": "Klebsiella pneumoniae; KUB3633 Klebsiella pneumoniae Clinical isolate, IMP-6", "result": 1, "unit": "µg/mL"}, {"measurement": "MIC", "setting": "Klebsiella pneumoniae; KUB3634 Klebsiella pneumoniae Clinical isolate, IMP-6", "result": 2, "unit": "µg/mL"}, {"measurement": "MIC", "setting": "Enterobacter cloacae; ATCCBAA2341, KUB4002 Enterobacter cloacae ATCC BAA-2341, KPC-3", "result": 0.5, "unit": "µg/mL"}, {"measurement": "MIC", "setting": "Enterobacter cloacae; ATCCBAA2468, KUB4006 Enterobacter cloacae ATCC BAA-2468, NDM-1", "result": 1, "unit": "µg/mL"}, {"measurement": "MIC", "setting": "Enterobacter hormaechei", "result": 2, "unit": "µg/mL"}, {"measurement": "MIC", "setting": "Providencia rettgeri", "result": 2, "unit": "µg/mL"}, {"measurement": "MIC90", "setting": "53 CRE and CPE strains; 53 CRE and CPE strains, read-out: MIC90", "result": 4, "unit": "µg/mL"}, {"measurement": "MIC90", "setting": "53 CRE and CPE strains; 53 bacterial isolates", "result": 4, "unit": "µg/mL"}, {"measurement": "MICrange", "setting": "53 CRE and CPE strains; 53 bacterial isolates", "result": "≤0.06 to 8", "unit": "µg/mL"}, {"measurement": "MIC80", "setting": "53 CRE and CPE strains; 53 bacterial isolates, read-out: MIC80", "result": 2, "unit": "µg/mL"}, {"measurement": "MIC90", "setting": "[1]", "result": 8, "unit": "µg/mL"}, {"measurement": "MIC against 26 metallo-carbapenemase-producing strains MIC50", "setting": "P. aeruginosa; [2]", "result": "0.5 µg(mL)"}, {"measurement": "MIC against 26 metallo-carbapenemase-producing strains MIC90", "setting": "P. aeruginosa; [2]", "result": "2 µg(mL)"}, {"measurement": "MIC against 26 metallo-carbapenemase-producing strains MICrange", "setting": "P. aeruginosa; [2]", "result": "0.25 - 4 µg(mL)"}, {"measurement": "MIC against 96 strains of P. aeruginosa MIC50", "setting": "P. aeruginosa; [3]", "result": "0.5 µg(mL)"}, {"measurement": "MIC against 96 strains of P. aeruginosa MIC90", "setting": "P. aeruginosa; [3]", "result": "2 µg(mL)"}, {"measurement": "MIC against 96 strains of P. aeruginosa MICrange", "setting": "P. aeruginosa; [3]", "result": "≤0.06 - 4 µg(mL)"}, {"measurement": "MIC", "setting": "P. aeruginosa; P. aeruginosa KUB No. 579, AR Bank # 447", "result": 0.12, "unit": "µg/mL"}, {"measurement": "MIC", "setting": "P. aeruginosa; P. aeruginosa KUB No. 5083, AR Bank # 250", "result": 4, "unit": "µg/mL"}, {"measurement": "MIC", "setting": "P. aeruginosa; P. aeruginosa KUB No. 5551, AR Bank # 54", "result": 0.5, "unit": "µg/mL"}, {"measurement": "MIC", "setting": "P. aeruginosa; P. aeruginosa KUB No. 5561, AR Bank # 64", "result": 2, "unit": "µg/mL"}, {"measurement": "MIC", "setting": "P. aeruginosa; P. aeruginosa KUB No. 5587, AR Bank # 90", "result": 1, "unit": "µg/mL"}, {"measurement": "MIC", "setting": "P. aeruginosa; P. aeruginosa KUB No. 5589, AR Bank # 92", "result": 2, "unit": "µg/mL"}, {"measurement": "MIC", "setting": "P. aeruginosa; P. aeruginosa KUB No. 5591, AR Bank # 94", "result": 2, "unit": "µg/mL"}, {"measurement": "MIC", "setting": "P. aeruginosa; P. aeruginosa KUB No. 5592, AR Bank # 95", "result": 0.5, "unit": "µg/mL"}, {"measurement": "MIC", "setting": "P. aeruginosa; P. aeruginosa KUB No. 5597, AR Bank # 100", "result": 0.5, "unit": "µg/mL"}, {"measurement": "MIC", "setting": "P. aeruginosa; P. aeruginosa KUB No. 5600, AR Bank # 103", "result": 1, "unit": "µg/mL"}, {"measurement": "MIC", "setting": "P. aeruginosa; P. aeruginosa KUB No. 5602, AR Bank # 105", "result": 1, "unit": "µg/mL"}, {"measurement": "MIC", "setting": "P. aeruginosa; P. aeruginosa KUB No. 5605, AR Bank # 108", "result": 0.5, "unit": "µg/mL"}, {"measurement": "MIC", "setting": "P. aeruginosa; P. aeruginosa KUB No. 5607, AR Bank # 110", "result": 0.25, "unit": "µg/mL"}, {"measurement": "MIC", "setting": "P. aeruginosa; P. aeruginosa KUB No. 5608, AR Bank # 111", "result": 0.5, "unit": "µg/mL"}, {"measurement": "MIC", "setting": "P. aeruginosa; P. aeruginosa KUB No. 5662, AR Bank # 229", "result": 0.12, "unit": "µg/mL"}, {"measurement": "MIC", "setting": "P. aeruginosa; P. aeruginosa KUB No. 5663, AR Bank # 230", "result": 0.5, "unit": "µg/mL"}, {"measurement": "MIC", "setting": "P. aeruginosa; P. aeruginosa KUB No. 5664, AR Bank # 231", "result": 2, "unit": "µg/mL"}, {"measurement": "MIC", "setting": "P. aeruginosa; P. aeruginosa KUB No. 5665, AR Bank # 232", "result": 0.12, "unit": "µg/mL"}, {"measurement": "MIC", "setting": "P. aeruginosa; P. aeruginosa KUB No. 5666, AR Bank # 23", "result": 0.12, "unit": "µg/mL"}, {"measurement": "MIC", "setting": "P. aeruginosa; P. aeruginosa KUB No. 5667, AR Bank # 234", "result": 0.25, "unit": "µg/mL"}, {"measurement": "MIC", "setting": "P. aeruginosa; P. aeruginosa KUB No. 5668, AR Bank # 235", "result": 1, "unit": "µg/mL"}, {"measurement": "MIC", "setting": "P. aeruginosa; P. aeruginosa KUB No. 5669, AR Bank # 236", "result": 0.25, "unit": "µg/mL"}, {"measurement": "MIC", "setting": "P. aeruginosa; P. aeruginosa KUB No. 5670, AR Bank # 237", "result": 0.25, "unit": "µg/mL"}, {"measurement": "MIC", "setting": "P. aeruginosa; P. aeruginosa KUB No. 5671, AR Bank # 238", "result": 1, "unit": "µg/mL"}, {"measurement": "MIC", "setting": "P. aeruginosa; P. aeruginosa KUB No. 5672, AR Bank # 239", "result": 2, "unit": "µg/mL"}, {"measurement": "MIC", "setting": "P. aeruginosa; P. aeruginosa KUB No. 5673, AR Bank # 240", "result": 1, "unit": "µg/mL"}, {"measurement": "MIC", "setting": "P. aeruginosa; P. aeruginosa KUB No. 5674, AR Bank # 241", "result": 0.25, "unit": "µg/mL"}, {"measurement": "MIC", "setting": "P. aeruginosa; P. aeruginosa KUB No. 5675, AR Bank # 242", "result": 0.5, "unit": "µg/mL"}, {"measurement": "MIC", "setting": "P. aeruginosa; P. aeruginosa KUB No. 5676, AR Bank # 243", "result": 0.5, "unit": "µg/mL"}, {"measurement": "MIC", "setting": "P. aeruginosa; P. aeruginosa KUB No. 5677, AR Bank # 244", "result": 0.25, "unit": "µg/mL"}, {"measurement": "MIC", "setting": "P. aeruginosa; P. aeruginosa KUB No. 5678, AR Bank # 245", "result": 0.25, "unit": "µg/mL"}, {"measurement": "MIC", "setting": "P. aeruginosa; P. aeruginosa KUB No. 5679, AR Bank # 246", "result": 4, "unit": "µg/mL"}, {"measurement": "MIC", "setting": "P. aeruginosa; P. aeruginosa KUB No. 5680, AR Bank # 247", "result": 0.12, "unit": "µg/mL"}, {"measurement": "MIC", "setting": "P. aeruginosa; P. aeruginosa KUB No. 5681, AR Bank # 248", "result": 0.5, "unit": "µg/mL"}, {"measurement": "MIC", "setting": "P. aeruginosa; P. aeruginosa KUB No. 5682, AR Bank # 249", "result": 0.5, "unit": "µg/mL"}, {"measurement": "MIC", "setting": "P. aeruginosa; P. aeruginosa KUB No. 5684, AR Bank # 251", "result": 0.12, "unit": "µg/mL"}]}]}
